Broadly, the IC50 is the point on the concentration scale where inhibition reaches its midpoint. The term IC90 denotes the point of the concentration-response curve where the effect stands at 90%.

Values joined by “and” are separate entries in the source; they are usually repeats but may differ in a detail not shown here. Equal entries are not always repeated. Where two headings read alike, the source gives them in different places.

For data set [1], the system named is HeLa-ADA effector cells and HeLa-P5L target cells seeded with 3T3 cells. The data set can be described thus: competition R5 fusion assay with mouse 3T3 competitor cells. It is filed as cell-based, HIV-1. Conditions: for inhibition in R5 fusion assay with competitor cells, in words: mouse 3T3 competitor cells. As to the method:
In the competition R5 fusion assay, 5×10^3 HeLa-P5L cells were seeded together with 5×10^3 3T3 cells per well. The rest of the procedure was identical to the normal R5 fusion assay.
For a potential therapeutic to be beneficial in an organism, it needs to be able to effectively find its target in the milieu of other cell types and potential binding partners. As a test of this ability, the R5 cell fusion assay was modified with the addition of unrelated mouse 3T3 cells.

The subject of data set [2] is HeLa-ADA effector cells (HIV-1 ADA (R5) env) and HeLa-P5L target cells (CD4, CCR5). The data set can be described thus: R5 cell-cell fusion assay. The settings on record: for IC50: read-out: R5 fusion assay IC50.
Data set [3] deals with ADA (R5) pseudovirus in TZM-bl cells. The settings on record: for IC50: read-out: ADA (R5) single round pseudovirus IC50.
The subject of data set [4] is HIV. Conditions: read-out: IC50 (50% inhibition) in in vitro assays; Root & Steger (2004); cited from earlier work.
The conditions of data set [5]: cited from earlier work.
The test system of data set [6] is 91US005 (R5) in PBMC. The data set can be described thus: HIV-1 replication in PBMC, 91US005. It is filed as cell-based.
In data set [7] the test system is HL2/3 effector cells (HXB2 env (X4)) and HeLa-TZM target cells. The data set can be described thus: X4 cell-cell fusion assay. Type of data set: cell-based, HIV-1. The source says:
In the X4 fusion assay, HeLa-TZM cells were used as target cells and HL2/3 cells were used as effector cells.

The subject of data set [8] is rabbit vaginal model. The settings on record: in vivo; cited from earlier work.
Data set [9] relates to multiple clades of HIV. Conditions: cited from earlier work.
For data set [10], the system named is IIIB (X4) in MAGI cells. The data set can be described thus: replication competent HIV assay, IIIB in MAGI cells. It is filed as cell-based.
The test system of data set [11] is ADA (R5) in MAGI cells. The experiment in a line: replication competent HIV assay, ADA in MAGI cells. Type of data set: cell-based.
The test system of data set [12] is HIV. Conditions: cited from earlier work.
The test system of data set [13] is 92HT599 (CXCR4-tropic) in PBMCs. The experiment in a line: HIV-1 replication in PBMC, 92HT599. Type of data set: cell-based. Conditions: combinations as total protein concentration.
Data set [14] relates to HeLa P5L cells pre-incubated with inhibitor, washed, then HeLa ADA cells. The data set can be described thus: R5 fusion assay with wash-out on P5L cells.
Data set [15] has as its system NL4-3 (CXCR4-tropic) in PBMCs. The data set can be described thus: HIV-1 replication in PBMC, NL4-3. Type of data set: cell-based. The settings on record: combinations as total protein concentration.
Data set [16] has as its system HeLa ADA cells pre-incubated with inhibitor, washed, then HeLa P5L cells. The experiment in a line: R5 fusion assay with wash-out on ADA cells.
Data set [17] has as its system human cervical explants. Conditions: cited from earlier work.
For data set [18], the system named is Ba-L (R5) in MAGI cells. The data set can be described thus: replication competent HIV assay, Ba-L in MAGI cells. Type of data set: cell-based.
Data set [19] concerns Ba-L (R5) in PBMC. The data set can be described thus: HIV-1 replication in PBMC, Ba-L. It is filed as cell-based.
The subject of data set [20] is JRFL (R5) pseudovirus in TZM-bl cells. The data set can be described thus: single round infection assay, JRFL pseudovirus.
In data set [21] the test system is X4 fusion. The settings on record: Martin et al. (2003); cited from earlier work.
The subject of data set [22] is CCR5-tropic fusion. Conditions: published reports, vaccinia technology; cited from earlier work.

Take “P2-RANTES-linker-Griffithsin: P2-RANTES linked to Griffithsin; SEQ ID NO. 4”: the “inhibition in R5 fusion assay with competitor cells, in words” value in [1] is “appeared to perform better than either protein alone”. Also, the “inhibition in R5 fusion assay, in words” value in data set [2] was “more effective than Griffithsin alone”.
“Ac-HTTWMEWDREINNYTSLIHSLIEESQNLQEKNEQELL-NH2 [C37(Q652L)]”: the values for the IC50 in data set [3] and in data set [2] were 114 ± 4.94 nM and 28.2 ± 8.34 nM, respectively.
With enfuvirtide, the IC50 in data set [4] is 2 to 20 nM. The lifetime in vivo entry in data set [5] was “short lifetime of only hours in vivo”.
Turning to Griffithsin, the IC50 in data set [6] (PBMCs, Table 8, combinations as total protein concentration, read-out: 91US005 (CCR5-tropic) IC50) is 0.28 ± 0.17 nM; in [6] (Table 7, read-out: 91US005 (R5) in PBMC IC50) it was 0.16 ± 0.03 nM; in [7] it was 0.48 nM and 0.468 nM; in data set [10], 0.145 ± 0.065 nM; in data set [11], 0.03 ± 0.01 nM; in [3] it was 0.008 ± 0.016 nM. Besides, the IC50 in data set [13] amounted to 0.74 ± 0.37 nM; in data set [14] (read-out: R5 fusion with wash-out on P5L cells IC50), 7.34 ± 3.58 nM; in data set [15], 0.17 ± 0.04 nM; in data set [16] (read-out: R5 fusion with wash-out on ADA cells IC50), 4.28 ± 1.5 nM; in [1] (3T3 competitor cells) it was 1.73 ± 0.603 nM; in data set [18], 0.04 nM. The IC50 in [2] was 1.31 nM and 1.3 nM; in [19] (PBMCs, Table 8, combinations as total protein concentration, read-out: Ba-L (CCR5-tropic) IC50), 0.28 ± 0.17 nM; in [19] (Table 7, read-out: Ba-L (R5) in PBMC IC50), 0.28 ± 0.17 nM; in data set [20] (read-out: JRFL (R5) single round pseudovirus IC50), 0.035 ± 0.008 nM. For the same substance, the IC90 in data set [6] (PBMCs, Table 8, combinations as total protein concentration, read-out: 91US005 (CCR5-tropic) IC90) was 0.76 ± 0.15 nM; in data set [6] (Table 7, read-out: 91US005 (R5) in PBMC IC90), 0.51 ± 0.08 nM; in [10], 0.89 ± 0.11 nM; in data set [11], 0.45 ± 0.04 nM; in data set [3] (read-out: ADA (R5) single round pseudovirus IC90), 0.164 ± 0.069 nM; in [13], 1.86 ± 0.89 nM. In addition, the IC90 in data set [15] stood at 0.725 ± 0.13 nM; in data set [18], 0.515 ± 0.055 nM; in [19] (PBMCs, Table 8, combinations as total protein concentration, read-out: Ba-L (CCR5-tropic) IC90), 0.76 ± 0.15 nM; in [19] (Table 7, read-out: Ba-L (R5) in PBMC IC90) it was 0.76 ± 0.15 nM; in [20] (read-out: JRFL (R5) single round pseudovirus IC90) it was 1.25 ± 0.19 nM. In addition, the “irritation in a rabbit vaginal model” value in [8] is reported as “non irritating”. Also, the “activity against clades of HIV” value in [9] was “active against multiple clades of HIV”. Further, the “activity in cervical/vaginal lavage fluid” value in [12] was “retains its activity”. Further, the “inhibition after wash-out on target (P5L) cells, in words” value in data set [14] is given as “still performed well”. Further, in [16], the “inhibition after wash-out on ADA cells, in words” value is “maintained nanomolar effectiveness”. For the same substance, the “inhibition in R5 fusion assay with competitor cells, in words” value in data set [1] is on record as “still performs well”. In addition, the “inflammation in human cervical explants” value in data set [17] was “non-inflammatory”.
On to “CD4M33: 27 amino acid peptide designed by Martin et al. as a mimic of human CD4 binding HIV gp120 (CNLHFCQLRCKSLGLLGKCAGSFCACV)”, for which the IC50 in data set [21] was 800 ± 90 nM. In [22], the “amount required to inhibit CCR5-tropic fusion” value is “micromolar amounts of the peptide are required”.
In the case of “GriffC37(Q652L): Griff37 with point mutation Q652L in the C37 part”, the “inhibition in X4 fusion assay, in words” value in [7] is recorded as “similar”. Moreover, the “inhibition in R5 fusion assay, in words” value in data set [2] was “approximately the same effectiveness as Griff37”.
With “Griff37 I642D: Griff37 with substitution of Asp for Ile at position 642 in C37”, the “inhibition in R5 fusion assay, in words” value in [2] is reported as “shows decreased activity”.

The values above are taken from patent publication US20110263485A1, “Bifunctional Griffithsin Analogs” (priority 2009, published 2011).
